Laboratory results reported in patent US11976059B2 (KOREA RESEARCH INSTITUTE OF CHEMICAL TECHNOLOGY, priority 2018, dated 2024).

biological target: EGFR L858R/T790M/C797S mutant enzyme (Homo sapiens (Human), UniProt P00533, C797S/L858R/T790M); assay: EGFR mutant enzyme inhibition, HTRF system (Cisbio); type: biochemical; settings: ATP 1 mM, 37° C. for 2 hours
Method: In order to evaluate the inhibitory activity of the compound represented by formula 1 according to the present invention against EGFR mutation, the following experiment was performed.
The activity of the compound of the present invention against EGFR mutant enzyme was measured using the HTRF system of Cisbio Co. As an EGFR L858R/T790M/C797S mutant enzyme, a protein provided by SignalChem was purchased and used as an enzyme source.
The composition of the assay buffer used for the activity measurement was as follows: 50 mM Tris-HCl (pH 7.5), 100 mM NaCl, 7.5 mM MgCl2, 3 mM KCl, 0.01% Tween 20, 0.1% BSA, and 1 mM DTT. Herein, an enzyme reaction was performed using a peptide substrate labeled with ATP at the concentration of 1 mM and biotin at the concentration of 0.5 μM. The analysis of the EGFR activity inhibitory effect of the compound was performed according to the following analytical reaction recipe.
Component 1: 4 μl of EGFR mutant enzyme
Component 2: 2 μl of compound solution
Component 3: 4 μl of ATP and biotin-labeled peptide mixture
The enzyme reaction was initiated by mixing the component 1 and the component 2 first and then adding the component 3 thereto. After reacting the mixture at 37° C. for 2 hours, 10 μl of a measurement solution consisting of streptavidin-XL665 and europium-labeled anti-phosphotyrosine antibody provided by Cisbio was added to the enzyme reaction solution, followed by reaction at room temperature for 1 hour. Finally, the ratio of the fluorescence values at 615 nm and 665 nm was calculated using Envision equipment of Perkin-Elmer to quantitatively measure the enzyme activity and confirm the inhibitory ability of the compound. The values measured at 7 concentrations of the compound were analyzed using Prism program (version 5.01, Graphpad Software, Inc.), and the IC50 value, an index of the inhibitory ability of the compound, was calculated.

Chain of EGFR L858R/T790M/C797S mutant enzyme (P00533 25-1210 T790M/C797S/L858R): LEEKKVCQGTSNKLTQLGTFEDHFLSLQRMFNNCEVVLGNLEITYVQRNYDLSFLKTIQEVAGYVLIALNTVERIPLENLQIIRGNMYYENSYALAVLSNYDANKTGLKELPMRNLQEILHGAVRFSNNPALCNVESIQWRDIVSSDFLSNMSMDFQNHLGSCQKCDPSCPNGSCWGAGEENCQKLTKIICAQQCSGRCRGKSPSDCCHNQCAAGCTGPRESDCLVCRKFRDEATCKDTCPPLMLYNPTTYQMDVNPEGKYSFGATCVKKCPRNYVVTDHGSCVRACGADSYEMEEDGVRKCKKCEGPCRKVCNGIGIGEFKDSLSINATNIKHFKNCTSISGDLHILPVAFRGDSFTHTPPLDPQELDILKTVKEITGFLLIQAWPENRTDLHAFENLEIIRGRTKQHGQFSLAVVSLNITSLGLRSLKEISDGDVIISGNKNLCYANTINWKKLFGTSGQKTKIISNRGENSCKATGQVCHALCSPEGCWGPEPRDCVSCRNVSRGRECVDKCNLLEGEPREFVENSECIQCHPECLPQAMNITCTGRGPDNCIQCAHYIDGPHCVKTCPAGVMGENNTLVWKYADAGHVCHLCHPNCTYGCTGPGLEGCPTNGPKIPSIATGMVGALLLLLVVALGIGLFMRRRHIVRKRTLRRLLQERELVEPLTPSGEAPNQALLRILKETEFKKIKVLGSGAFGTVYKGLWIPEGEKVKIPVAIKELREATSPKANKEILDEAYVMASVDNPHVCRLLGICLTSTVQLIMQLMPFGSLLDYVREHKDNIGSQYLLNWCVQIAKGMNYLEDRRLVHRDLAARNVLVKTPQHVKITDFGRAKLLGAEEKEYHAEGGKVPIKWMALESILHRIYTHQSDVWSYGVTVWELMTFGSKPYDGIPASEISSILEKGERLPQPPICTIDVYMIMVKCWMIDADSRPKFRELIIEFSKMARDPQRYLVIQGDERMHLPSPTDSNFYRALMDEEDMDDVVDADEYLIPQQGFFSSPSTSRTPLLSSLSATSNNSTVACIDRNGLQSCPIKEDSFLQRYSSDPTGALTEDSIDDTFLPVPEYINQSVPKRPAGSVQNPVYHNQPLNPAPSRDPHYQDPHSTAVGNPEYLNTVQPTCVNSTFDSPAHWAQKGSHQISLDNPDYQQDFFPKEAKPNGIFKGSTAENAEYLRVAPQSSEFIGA

Row | IC50 [µM] | Structure (SMILES)
1 | 1 | O=C1c2ccccc2CN1C(c1nc2ccccc2[nH]1)c1ccccc1O (centres unmarked) [Example 1, 2-((1H-benzo[d]imidazole-2-yl)(2-hydroxyphenyl)methyl)isoindolin-1-one]
2 | 2.2 | O=C1c2ccccc2CN1C(c1nc2ccc(F)cc2[nH]1)c1ccccc1O (centres unmarked) [Example 2, 2-((6-fluoro-1H-benzo[d]imidazole-2-yl)(2-hydroxyphenyl)methyl)isoindolin-1-one]
3 | 2.3 | O=C1c2ccccc2CN1C(c1nc2cccnc2[nH]1)c1ccccc1O (centres unmarked) [Example 3, 2-((2-hydroxyphenyl)(3H-imidazo[4,5-b]pyridine-2-yl)methyl)isoindolin-1-one]
4 | 4.4 | O=C1c2ccccc2CN1C(c1nc2ccc(Cl)cc2[nH]1)c1ccccc1O (centres unmarked) [Example 4, 2-((6-chloro-1H-benzo[d]imidazole-2-yl)(2-hydroxyphenyl)methyl)isoindolin-1-one]
5 | 7 | O=C1c2ccccc2CN1C(c1nc2cc(Cl)c(Cl)cc2[nH]1)c1ccccc1O (centres unmarked) [Example 5, 2-((5,6-dichloro-1H-benzo[d]imidazole-2-yl)(2-hydroxyphenyl)methyl)isoindolin-1-one]
6 | > 10 | O=C1c2ccccc2CN1C(c1nc2ccc(Cl)nc2[nH]1)c1ccccc1O (centres unmarked) [Example 6, 2-((5-chloro-3H-imidazo[4,5-b]pyridine-2-yl)(2-hydroxyphenyl)methyl)isoindolin-1-one]
7 | 0.7 | O=C1c2ccccc2CN1C(c1nc2ccccc2[nH]1)c1cc(F)ccc1O (centres unmarked) [Example 7, 2-((1H-benzo[d]imidazole-2-yl)(5-fluoro-2-hydroxyphenyl)methyl)isoindolin-1-one]
8 | 0.17 | O=C1c2ccccc2CN1C(c1nc2ccccc2[nH]1)c1cc(Cl)ccc1O (centres unmarked) [Example 8, 2-((1H-benzo[d]imidazole-2-yl)(5-chloro-2-hydroxyphenyl)methyl)isoindolin-1-one]
9 | 0.099 | O=C1c2cc(-c3ccc(N4CCNCC4)cc3)ccc2CN1C(c1nc2ccccc2[nH]1)c1cc(F)ccc1O (centres unmarked) [Example 10, 2-((1H-benzo[d]imidazole-2-yl)(5-fluoro-2-hydroxyphenyl)methyl)-6-(4-(piperazine-1-yl)phenyl)isoindolin-1-one]
10 | 0.15 | O=C1c2cc(-c3ccc(N4CCNCC4)cc3)ccc2CN1C(c1nc2ccccc2[nH]1)c1cc(Cl)ccc1O (centres unmarked) [Example 11, 2-((1H-benzo[d]imidazole-2-yl)(5-chloro-2-hydroxyphenyl)methyl)-6-(4-(piperazine-1-yl)phenyl)isoindolin-1-one]
11 | 0.5 | Nc1ccc(-c2ccc3c(c2)C(=O)N(C(c2nc4ccccc4[nH]2)c2ccccc2O)C3)cc1 (centres unmarked) [Example 12, 2-((1H-benzo[d]imidazole-2-yl)(2-hydroxyphenyl)methyl)-6-(4-aminophenyl)isoindolin-1-one]
12 | 1.3 | Nc1ccc(-c2ccc3c(c2)C(=O)N(C(c2nc4ccccc4[nH]2)c2cc(Cl)ccc2O)C3)cc1 (centres unmarked) [Example 14, 2-((1H-benzo[d]imidazole-2-yl)(5-chloro-2-hydroxyphenyl)methyl)-6-(4-aminophenyl)isoindolin-1-one]
13 | 0.13 | CN1CCN(c2ccc(-c3ccc4c(c3)C(=O)N(C(c3nc5ccccc5[nH]3)c3cc(F)ccc3O)C4)cc2)CC1 (centres unmarked) [Example 18, 2-((1H-benzo[d]imidazole-2-yl)(5-fluoro-2-hydroxyphenyl)methyl)-6-(4-(4-methylpiperazine-1-yl)phenyl)isoindolin-1-one]
14 | > 10 | O=C1c2ccccc2CN1[C@@H](c1cc2ccccc2[nH]1)c1ccccc1O [Example 19, (R)-2-((2-hydroxyphenyl)(1H-indole-2-yl)methyl)isoindolin-1-one]
15 | 1.6 | Cc1ccc(O)c([C@H](c2cc3ccccc3[nH]2)N2Cc3ccccc3C2=O)c1 [Example 20, (R)-2-((2-hydroxy-5-methylphenyl)(1H-indole-2-yl)methyl)isoindolin-1-one]
16 | > 10 | O=C1c2ccccc2CN1[C@@H](c1cc2ccccc2[nH]1)c1c(O)ccc(F)c1F [Example 21, (R)-2-((2,3-difluoro-6-hydroxyphenyl)(1H-indole-2-yl)methyl)isoindolin-1-one]
17 | > 10 | O=C1c2ccccc2CN1[C@@H](c1cc2ccccc2[nH]1)c1cc(F)c(F)cc1O [Example 22, (R)-2-((4,5-difluoro-2-hydroxyphenyl)(1H-indole-2-yl)methyl)isoindolin-1-one]
18 | 2.4 | O=C1c2ccccc2CN1[C@@H](c1cc2ccccc2[nH]1)c1cc(F)ccc1O [Example 23, (R)-2-((5-fluoro-2-hydroxyphenyl)(1H-indole-2-yl)methyl)isoindolin-1-one]
19 | 3.3 | O=C1c2ccccc2CN1[C@H](c1cc2ccccc2[nH]1)c1cc(F)ccc1O [Example 24, (S)-2-((5-fluoro-2-hydroxyphenyl)(1H-indole-2-yl)methyl)isoindolin-1-one]
20 | > 10 | O=C1c2ccccc2CN1[C@@H](c1cc2ccccc2[nH]1)c1c(O)cccc1F [Example 25, (R)-2-((2-fluoro-6-hydroxyphenyl)(1H-indole-2-yl)methyl)isoindolin-1-one]
21 | 0.19 | O=C1c2ccccc2CN1[C@@H](c1cc2ccccc2[nH]1)c1cc(Cl)ccc1O [Example 26, (R)-2-((5-chloro-2-hydroxyphenyl)(1H-indole-2-yl)methyl)isoindolin-1-one]
22 | 0.28 | O=C1c2ccccc2CN1[C@H](c1cc2cccnc2[nH]1)c1cc(F)ccc1O [Example 27, (S)-2-((5-fluoro-2-hydroxyphenyl)(1H-pyrrolo[2,3-b]pyridine-2-yl)methyl)isoindolin-1-one]
23 | 0.16 | Nc1ccc(-c2ccc3c(c2)C(=O)N([C@@H](c2cc4ccccc4[nH]2)c2ccccc2O)C3)cc1 [Example 28, (R)-6-(4-aminophenyl)-2-((2-hydroxyphenyl)(1H-indole-2-yl)methyl)isoindolin-1-one]
24 | 0.28 | Nc1ccc(-c2ccc3c(c2)C(=O)N([C@@H](c2cc4ccccc4[nH]2)c2cc(F)ccc2O)C3)cc1 [Example 29, (R)-6-(4-aminophenyl)-2-((5-fluoro-2-hydroxyphenyl)(1H-indole-2-yl)methyl)isoindolin-1-one]
25 | 0.12 | Nc1ccc(-c2ccc3c(c2)C(=O)N([C@@H](c2cc4ccccc4[nH]2)c2cc(Cl)ccc2O)C3)cc1 [Example 30, (R)-6-(4-aminophenyl)-2-((5-chloro-2-hydroxyphenyl)(1H-indole-2-yl)methyl)isoindolin-1-one]
26 | 0.018 | O=C1c2cc(-c3ccc(N4CCNCC4)cc3)ccc2CN1[C@@H](c1cc2ccccc2[nH]1)c1ccccc1O [Example 31, (R)-2-((2-hydroxyphenyl)(1H-indole-2-yl)methyl)-6-(4-(piperazine-1-yl)phenyl)isoindolin-1-one]
27 | > 10 | O=C1c2cc(N3CCNCC3)ccc2CN1[C@@H](c1cc2ccccc2[nH]1)c1cc(F)ccc1O [Example 37, (R)-2-((5-fluoro-2-hydroxyphenyl)(1H-indole-2-yl)methyl)-6-(piperazine-1-yl)isoindolin-1-one]
28 | 7.6 | CN1CCN(c2ccc3c(c2)C(=O)N([C@@H](c2cc4ccccc4[nH]2)c2cc(F)ccc2O)C3)CC1 [Example 38, (R)-2-((5-fluoro-2-hydroxyphenyl)(1H-indole-2-yl)methyl)-6-(4-methylpiperazine-1-yl)isoindolin-1-one]
29 | 0.96 | O=C1c2cc(-c3ccc(N4CCOCC4)cc3)ccc2CN1C(c1nc2ccccc2[nH]1)c1cc(F)ccc1O (centres unmarked) [Example 39, 2-((1H-benzo[d]imidazole-2-yl)(5-fluoro-2-hydroxyphenyl)methyl)-6-(4-morpholinophenyl)isoindolin-1-one]

Row | Structure (SMILES) | IC50 [µM]
30 | O=C1c2cc(C3=CCNCC3)ccc2CN1C(c1nc2ccccc2[nH]1)c1ccccc1O (centres unmarked) [Example 15, 2-((1H-benzo[d]imidazole-2-yl)(2-hydroxyphenyl)methyl)-6-(1,2,3,6-tetrahydropyridine-4-yl)isoindolin-1-one] | 8.8
31 | O=C1c2cc(C3=CCNCC3)ccc2CN1C(c1nc2ccccc2[nH]1)c1cc(F)ccc1O (centres unmarked) [Example 16] | 2.9
32 | O=C1c2cc(C3=CCNCC3)ccc2CN1C(c1nc2ccccc2[nH]1)c1cc(Cl)ccc1O (centres unmarked) [Example 17] | 1.1
33 | O=C1c2cc(C3=CCNCC3)ccc2CN1[C@@H](c1cc2ccccc2[nH]1)c1ccccc1O [Example 34, (R)-2-((2-hydroxyphenyl)(1H-indole-2-yl)methyl)-6-(1,2,3,6-tetrahydropyridine-4-yl)isoindolin-1-one] | 2.9
34 | O=C1c2cc(C3=CCNCC3)ccc2CN1[C@@H](c1cc2ccccc2[nH]1)c1cc(F)ccc1O [Example 35, (R)-2-((5-fluoro-2-hydroxyphenyl)(1H-indole-2-yl)methyl)-6-(1,2,3,6-tetrahydropyridine-4-yl)isoindolin-1-one] | 0.73
35 | O=C1c2cc(C3=CCNCC3)ccc2CN1[C@@H](c1cc2ccccc2[nH]1)c1cc(Cl)ccc1O [Example 36, (R)-2-((5-chloro-2-hydroxyphenyl)(1H-indole-2-yl)methyl)-6-(1,2,3,6-tetrahydropyridine-4-yl)isoindolin-1-one] | 2.4
